By TGI is commonly meant the concentration giving total growth inhibition.

Test systems include PC-3 prostate; HS 578T breast; HT29 colon; NCI-H23 lung; CAKI-1 renal; SN12C renal; K-562 leukemia; HCC-2998 colon; SR leukemia; MDA-MB-435; CCRF-CEM leukemia; MDA-N; OVCAR-8 ovarian; A498 renal; SNB-19 CNS; SNB-75 CNS; A549 NSCLC; ACHN renal; NCI-H226 lung; SK-MEL-2 melanoma.
Common to all, as to experiment: DTP human tumour cell line panel, 48 h

The structures appear in SMILES notation.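 Cultured in 96-well plates, cells were exposed to test compound for 48 hours across five concentrations. TGI: total growth inhibition.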 Some results are limits rather than exact numbers.

Regarding `CC1(C)CNC(=O)C2(C=NC(C)(C)CNC(=O)C3(C=N1)CCCO3)CCCO2` (configuration not stated), the total growth inhibition concentration (TGI) in the experiment with PC-3 prostate, in the experiment on HS 578T breast, in the experiment with HT29 colon, with NCI-H23 lung, with CAKI-1 renal and with SN12C renal was greater than 10 µM throughout. Further, the total growth inhibition concentration (TGI) in the experiment with K-562 leukemia, with HCC-2998 colon, with SR leukemia, in the experiment on MDA-MB-435, in the experiment on CCRF-CEM leukemia and in the experiment on MDA-N was greater than 10 µM throughout. Besides, the TGI with OVCAR-8 ovarian, in the experiment on A498 renal, with SNB-19 CNS, in the experiment with SNB-75 CNS, in the experiment on A549 NSCLC and in the experiment on ACHN renal was greater than 10 µM throughout.

As for `c1ccc(/C(=N/Nc2ccccn2)c2ncccn2)cc1`, the TGI in the experiment on PC-3 prostate is greater than 100 µM; with HS 578T breast, greater than 44.9 µM; in the experiment with HT29 colon, greater than 47.4 µM; in the experiment on NCI-H23 lung it was greater than 37.6 µM; in the experiment on CAKI-1 renal, 5.69 µM; in the experiment on SN12C renal, greater than 100 µM. In addition, the TGI is greater than 39.8 µM in the experiment on K-562 leukemia; greater than 100 µM with HCC-2998 colon; greater than 27.5 µM with SR leukemia; 0.956 µM with NCI-H226 lung; greater than 100 µM with MDA-MB-435; greater than 100 µM in the experiment with CCRF-CEM leukemia. Besides, the TGI in the experiment with MDA-N is greater than 100 µM; with OVCAR-8 ovarian it was 3.43 µM; in the experiment with A498 renal, greater than 100 µM; in the experiment with SNB-19 CNS it was greater than 100 µM; in the experiment on SNB-75 CNS, 16.2 µM; in the experiment on A549 NSCLC, greater than 76.9 µM. The values for the TGI in the experiment on SK-MEL-2 melanoma and in the experiment with ACHN renal were greater than 100 µM and 13.3 µM, respectively.

For `FC(F)(F)c1ccc2nc3n(c2c1)C(c1c(Cl)cccc1Cl)SC3` (configuration not stated), the TGI amounted to 31.5 µM in the experiment with PC-3 prostate; 68.9 µM with HS 578T breast; 30.4 µM in the experiment on HT29 colon; 37 µM in the experiment with NCI-H23 lung; 28 µM in the experiment on CAKI-1 renal; 32.7 µM in the experiment on SN12C renal. In addition, the TGI in the experiment on HCC-2998 colon came to 35 µM; with SR leukemia, 21.4 µM; in the experiment with NCI-H226 lung, 35.4 µM; in the experiment on MDA-MB-435, 30.5 µM; in the experiment on MDA-N, 24.3 µM; with OVCAR-8 ovarian, 46.8 µM. The TGI with A498 renal worked out at 34.8 µM; in the experiment on SNB-19 CNS it was 34 µM; in the experiment on SNB-75 CNS, 25.8 µM; with A549 NSCLC, 29.5 µM; in the experiment with SK-MEL-2 melanoma, 42.3 µM; with ACHN renal, 32.1 µM.

With `CCOC(=O)/C(C#N)=N\Nc1ccc(-n2c(C)nc3ccccc3c2=O)cc1`, the concentration for total growth inhibition (TGI) in the experiment on PC-3 prostate, in the experiment with HS 578T breast, in the experiment on HT29 colon, in the experiment with NCI-H23 lung, in the experiment with CAKI-1 renal and with SN12C renal was greater than 100 µM throughout. The TGI with K-562 leukemia, with SR leukemia, in the experiment on NCI-H226 lung, in the experiment with MDA-MB-435, with CCRF-CEM leukemia and in the experiment with MDA-N was greater than 100 µM each time. Moreover, the TGI in the experiment on OVCAR-8 ovarian, in the experiment on A498 renal, in the experiment on SNB-19 CNS, with SNB-75 CNS, with A549 NSCLC and with SK-MEL-2 melanoma was greater than 100 µM each time. In the experiment on ACHN renal, this molecule returned a TGI greater than 100 µM.

`CC(=O)OC/C=C(/C=C/CNC1CCCCC1)OC(C)=O`: the total growth inhibition concentration (TGI) was 31.1 µM in the experiment with PC-3 prostate; 80.7 µM in the experiment on HS 578T breast; 35.5 µM with HT29 colon; 29.9 µM with NCI-H23 lung; 26.7 µM in the experiment on CAKI-1 renal; 32.1 µM in the experiment on SN12C renal. The concentration for total growth inhibition (TGI) in the experiment on K-562 leukemia was 32 µM; in the experiment with HCC-2998 colon, 40.3 µM; with SR leukemia, 35.7 µM; in the experiment with NCI-H226 lung, 98.5 µM; in the experiment on MDA-MB-435, 30.4 µM; with CCRF-CEM leukemia, greater than 100 µM. Besides, the total growth inhibition concentration (TGI) with MDA-N was 31.9 µM; in the experiment with A498 renal, 33.9 µM; in the experiment with SNB-19 CNS, 49.9 µM; with SNB-75 CNS, 93.6 µM; with A549 NSCLC, greater than 100 µM; in the experiment with SK-MEL-2 melanoma it was 43.8 µM. Besides, the TGI in the experiment with ACHN renal turned out to be 30.1 µM.

For the molecule `CC1(CNCc2ccccc2)CC(CCc2ccccc2)N(C(=O)c2ccc([N+](=O)[O-])cc2)C1Cc1ccc(O)cc1` (configuration not stated), the TGI in the experiment with PC-3 prostate came out at 26.3 µM; in the experiment with HS 578T breast it was 46.8 µM; in the experiment on HT29 colon, 22 µM; in the experiment on NCI-H23 lung, 23.5 µM; in the experiment on CAKI-1 renal, 28.1 µM; in the experiment with SN12C renal, 20.8 µM. For the same molecule, the TGI with K-562 leukemia was greater than 100 µM; in the experiment with HCC-2998 colon, 27.1 µM; with SR leukemia it was greater than 100 µM; with NCI-H226 lung, 24.1 µM; in the experiment with MDA-MB-435, 28.2 µM; with CCRF-CEM leukemia, greater than 100 µM. For the same molecule, the concentration for total growth inhibition (TGI) was 27.1 µM in the experiment on MDA-N; 32 µM in the experiment on OVCAR-8 ovarian; 26.7 µM with A498 renal; 29.1 µM in the experiment with SNB-19 CNS; 24.8 µM in the experiment on A549 NSCLC; 32.7 µM in the experiment with SK-MEL-2 melanoma. This molecule also displayed a TGI in the experiment on ACHN renal of 24.8 µM.

On to `COCc1nc2c(OC)cc(-c3nc4ccc(N5CCN(C)CC5)cc4[nH]3)c(OC)c2[nH]1`, for which the total growth inhibition concentration (TGI) in the experiment on PC-3 prostate, in the experiment on HS 578T breast, with HT29 colon, in the experiment with NCI-H23 lung, in the experiment on CAKI-1 renal and in the experiment with SN12C renal was greater than 100 µM in each case. The TGI with K-562 leukemia was greater than 100 µM; in the experiment on SR leukemia, 54.6 µM; in the experiment with NCI-H226 lung, greater than 100 µM; in the experiment with MDA-MB-435, greater than 100 µM; with CCRF-CEM leukemia it was greater than 100 µM; in the experiment on MDA-N it was greater than 100 µM. Besides, the TGI with OVCAR-8 ovarian was greater than 100 µM; in the experiment with A498 renal, greater than 100 µM; in the experiment with SNB-19 CNS it was greater than 100 µM; in the experiment on SNB-75 CNS it was greater than 100 µM; with A549 NSCLC, greater than 100 µM; with SK-MEL-2 melanoma it was 76.3 µM. This molecule also displayed a concentration for total growth inhibition (TGI) in the experiment on ACHN renal greater than 100 µM.

Values taken from PubChem BioAssay (NCI).
